Assay results taken from the NIST ThermoML archive (doi:10.1016/j.jct.2005.09.004).
± gives the expanded uncertainty stated by the source.

Key:
[1] = for surface tension liquid-gas: Drop volume; for mass density: 101.33 kPa, Liquid
[2] = refractive index (Na D-line) (dimensionless); details: 101.33 kPa, Liquid, Standard Abbe refractometry

Structure (SMILES): C1CCCC1 [cyclopentane]
- surface tension liquid-gas ([1]; 283.15 K): 24.14 ± 0.3 mN/m
- mass density ([1]; 283.15 K): 754.85 ± 0.77 kg/m3
- surface tension liquid-gas ([1]; 298.15 K): 22.06 ± 0.28 mN/m
- mass density ([1]; 298.15 K): 739.74 ± 0.79 kg/m3
- surface tension liquid-gas ([1]; 313.15 K): 19.76 ± 0.25 mN/m
- mass density ([1]; 313.15 K): 724.71 ± 0.81 kg/m3
- refractive index ([2]; 283.15 K): 1.41197 ± 0.00037
- refractive index ([2]; 298.15 K): 1.40335 ± 0.00037
- refractive index ([2]; 313.15 K): 1.39451 ± 0.00037

Structure (SMILES): C1CCCCC1 [cyclohexane]
- surface tension liquid-gas ([1]; 283.15 K): 26.28 ± 0.3 mN/m
- mass density ([1]; 283.15 K): 787.97 ± 0.3 kg/m3
- surface tension liquid-gas ([1]; 298.15 K): 24.73 ± 0.28 mN/m
- mass density ([1]; 298.15 K): 773.65 ± 0.32 kg/m3
- surface tension liquid-gas ([1]; 313.15 K): 22.93 ± 0.26 mN/m
- mass density ([1]; 313.15 K): 759.59 ± 0.33 kg/m3
- refractive index ([2]; 283.15 K): 1.43182 ± 0.00031
- refractive index ([2]; 298.15 K): 1.42348 ± 0.00031
- refractive index ([2]; 313.15 K): 1.41498 ± 0.00031

Structure (SMILES): C1COCCO1 [1,4-dioxane]
- surface tension liquid-gas ([1]; 283.15 K): 35.09 ± 0.39 mN/m
- mass density ([1]; 283.15 K): 1045.16 ± 0.14 kg/m3
- surface tension liquid-gas ([1]; 298.15 K): 33.23 ± 0.37 mN/m
- mass density ([1]; 298.15 K): 1027.85 ± 0.12 kg/m3
- surface tension liquid-gas ([1]; 313.15 K): 31.23 ± 0.35 mN/m
- mass density ([1]; 313.15 K): 1010.99 ± 0.11 kg/m3
- refractive index ([2]; 283.15 K): 1.42721 ± 0.00031
- refractive index ([2]; 298.15 K): 1.41992 ± 0.00031
- refractive index ([2]; 313.15 K): 1.41256 ± 0.00031
